Test results published in patent US7524853B2 (Solvay Pharmaceuticals B.V., priority 2003, dated 2009).

How the values were obtained:
Format in all cases: cell-based
[1] = molecular target: T1, 17β-hydroxysteroid dehydrogenase type 3 (17β-HSD type 3) (Homo sapiens, UniProt P37058); assay: Inhibition of 17β-HSD type 3 in MCF-7 cells stably expressing the isoenzyme (tritium labeled androstenedione conversion, HPLC); details: MCF-7 cells expressing 17β-HSD type 3, 2 nM tritium labeled androstenedione; for % Inhibition HSD3 1 μM / inhibition at 1 µM: 1 μM test compound; for % Inhibition HSD3 10 μM / inhibition at 10 µM: 10 μM test compound; for inhibition at 1 µM / inhibition at 10 µM: MCF7; for inhibition at 1 µM: read-out: % Inhibition HSD3 1 μM; for inhibition at 10 µM: read-out: % Inhibition HSD3 10 μM
T1 construct: expressed in transfected cells; host or cells: MCF-7
T1 sequence (P37058 1-310): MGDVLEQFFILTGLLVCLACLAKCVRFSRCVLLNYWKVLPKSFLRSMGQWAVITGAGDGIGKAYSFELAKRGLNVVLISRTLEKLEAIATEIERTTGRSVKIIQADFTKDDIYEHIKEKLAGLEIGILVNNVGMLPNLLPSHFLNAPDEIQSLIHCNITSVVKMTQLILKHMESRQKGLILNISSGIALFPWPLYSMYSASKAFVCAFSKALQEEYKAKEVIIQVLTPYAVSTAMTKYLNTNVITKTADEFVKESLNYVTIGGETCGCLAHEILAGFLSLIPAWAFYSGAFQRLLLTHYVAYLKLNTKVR
Summary of the method: (§1)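 Each isoenzyme was stably expressed in its own MCF-7 line, and cells were incubated in growth medium with test compound and 2 nM tritiated substrate: estrone (type 1), estradiol (type 2), androstenedione (type 3). Medium was sampled after a fixed time, TCA-stopped, and analysed by HPLC-flow scintillation; inhibition versus compound-free control, two compound concentrations.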

[2] = molecular target: T2, 17β-hydroxysteroid dehydrogenase type 1 (17β-HSD type 1) (Homo sapiens, UniProt P14061); assay: Inhibition of 17β-HSD type 1 in MCF-7 cells stably expressing the isoenzyme (tritium labeled estrone conversion, HPLC); details: MCF-7 cells expressing 17β-HSD type 1, 2 nM tritium labeled estrone; for % Inhibition HSD1 1 μM / inhibition at 1 µM: 1 μM test compound; for % Inhibition HSD1 10 μM / inhibition at 10 µM: 10 μM test compound; for inhibition at 1 µM / inhibition at 10 µM: MCF7; for inhibition at 1 µM: read-out: % Inhibition HSD1 1 μM; for inhibition at 10 µM: read-out: % Inhibition HSD1 10 μM
T2 construct: expressed in transfected cells; host or cells: MCF-7
T2 sequence (P14061 1-328): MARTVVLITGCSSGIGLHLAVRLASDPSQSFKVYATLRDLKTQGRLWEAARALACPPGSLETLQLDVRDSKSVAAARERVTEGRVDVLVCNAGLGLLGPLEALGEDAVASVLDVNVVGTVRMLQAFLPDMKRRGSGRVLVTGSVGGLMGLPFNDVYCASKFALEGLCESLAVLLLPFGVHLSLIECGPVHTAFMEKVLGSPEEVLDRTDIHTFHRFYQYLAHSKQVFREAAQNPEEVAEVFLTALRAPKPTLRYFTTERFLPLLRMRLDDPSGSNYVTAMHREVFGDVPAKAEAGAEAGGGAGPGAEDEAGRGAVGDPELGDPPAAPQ
Summary of the method: as §1

[3] = molecular target: T3, 17β-hydroxysteroid dehydrogenase type 2 (17β-HSD type 2) (Homo sapiens, UniProt P37059); assay: Inhibition of 17β-HSD type 2 in MCF-7 cells stably expressing the isoenzyme (tritium labeled estradiol conversion, HPLC); details: MCF-7 cells expressing 17β-HSD type 2, 2 nM tritium labeled estradiol; for % Inhibition HSD2 1 μM / inhibition at 1 µM: 1 μM test compound; for % Inhibition HSD2 10 μM / inhibition at 10 µM: 10 μM test compound; for inhibition at 1 µM / inhibition at 10 µM: MCF7; for inhibition at 1 µM: read-out: % Inhibition HSD2 1 μM; for inhibition at 10 µM: read-out: % Inhibition HSD2 10 μM
T3 construct: expressed in transfected cells; host or cells: MCF-7
T3 sequence (P37059 1-387): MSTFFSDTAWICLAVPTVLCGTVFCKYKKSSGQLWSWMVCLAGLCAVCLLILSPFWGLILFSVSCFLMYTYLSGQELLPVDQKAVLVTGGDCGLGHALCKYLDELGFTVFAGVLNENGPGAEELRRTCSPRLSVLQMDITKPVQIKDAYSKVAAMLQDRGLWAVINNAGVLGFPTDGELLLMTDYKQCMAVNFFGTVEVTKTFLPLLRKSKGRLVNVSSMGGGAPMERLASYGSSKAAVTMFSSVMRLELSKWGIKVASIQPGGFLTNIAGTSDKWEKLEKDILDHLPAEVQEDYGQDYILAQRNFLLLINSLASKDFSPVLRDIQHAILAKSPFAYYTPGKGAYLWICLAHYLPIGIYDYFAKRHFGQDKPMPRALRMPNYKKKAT
Summary of the method: as §1

Structure (SMILES) | % Inhibition HSD3 1 μM [1] | % Inhibition HSD3 10 μM [1] | % Inhibition HSD1 1 μM [2] | % Inhibition HSD1 10 μM [2] | % Inhibition HSD2 1 μM [3] | % Inhibition HSD2 10 μM [3] | inhibition at 1 µM [1] | inhibition at 10 µM [1] | inhibition at 1 µM [2] | inhibition at 10 µM [2] | inhibition at 1 µM [3] | inhibition at 10 µM [3]
O=c1c2c(nc(CCC3CCCC3)n1CCc1cccs1)sc1c(O)cccc12 [No. 643] | 23.4% | 46.1% | 15.7% | 34.2% | 20.1% | 43.3% | – | – | – | – | – | –
CCCCC(CC)c1nc2sc3c(O)cccc3c2c(=O)n1CCc1cccs1 (stereo not drawn) [No. 644] | 13.9% | 19.8% | 29.8% | 28.4% | 27.6% | 26.4% | – | – | – | – | – | –
COCc1nc2sc3c(O)cccc3c2c(=O)n1CCc1cccs1 [No. 645] | 21.7% | 22.7% | 17.2% | 29.1% | 48.8% | 75.5% | – | – | – | – | – | –
CC(C)=Cc1nc2sc3c(O)cccc3c2c(=O)n1CCc1cccs1 [No. 648] | 17.7% | 70.1% | 18.0% | 24.6% | 16.0% | 40.2% | – | – | – | – | – | –
O=c1c2c(nc(CCc3ccccc3)n1Cc1ccccc1)sc1c(O)cccc12 [No. 659] | 22.9% | 76.1% | 14.4% | 35.4% | 16.3% | 33.9% | – | – | – | – | – | –
O=c1c2c(nc(Cc3ccccc3)n1Cc1ccccc1)sc1c(O)cccc12 [No. 660] | 16.6% | 19.9% | 21.7% | 37.1% | 19.8% | 48.9% | – | – | – | – | – | –
CCCCC(CC)c1nc2sc3c(O)cccc3c2c(=O)n1Cc1ccccc1 (stereo not drawn) [No. 663] | 12.4% | 45.6% | 26.3% | 24.6% | 37.4% | 57.6% | – | – | – | – | – | –
CC(C)=Cc1nc2sc3c(O)cccc3c2c(=O)n1Cc1ccccc1 [No. 667] | 16.9% | 37.0% | 20.1% | 51.9% | 20.9% | 63.7% | – | – | – | – | – | –
COc1cc(-c2nc3sc4c(c3c(=O)n2Cc2ccccc2)C(C)CCC4)cc(OC)c1OC (stereo not drawn) [No. 683, 3-Benzyl-5-methyl-2-(3,4,5-trimethoxyphenyl)-5,6,7,8-tetrahydro-3H-benzo[4,5]thieno[2,3-d]pyrimidin-4-one] | – | – | – | – | – | – | 8.1% | 37.7% | 16.8% | 32.9% | 9.2% | 18.8%
COc1cc(-c2nc3sc4c(c3c(=O)n2Cc2ccccc2)C(C)CCC4=O)cc(OC)c1OC (stereo not drawn) [No. 684, 3-Benzyl-5-methyl-2-(3,4,5-trimethoxyphenyl)-6,7-dihydro-3H,5H-benzo[4,5]thieno[2,3-d]pyrimidin-4,8-dione] | – | – | – | – | – | – | 24.7% | 10.5% | 24.6% | 63.3% | 9.2% | 11%
COc1cc(-c2nc3sc4c(c3c(=O)n2Cc2ccccc2)C(C)CC(Br)C4=O)c(Br)c(OC)c1OC (stereo not drawn) [No. 685, 3-Benzyl-7-bromo-2-(2-bromo-3,4,5-trimethoxyphenyl)-5-methyl-6,7-dihydro-3H,5H-benzo[4,5]thieno[2,3-d]pyrimidine-4,8-dione] | – | – | – | – | – | – | 5.1% | 13.8% | 16.6% | 31.2% | 22.7% | 19.9%
COc1cc(-c2nc3sc4c(O)ccc(C)c4c3c(=O)n2Cc2ccccc2)c(Br)c(OC)c1OC [No. 686, 3-Benzyl-2-(2-bromo-3,4,5-trimethoxyphenyl)-8-hydroxy-5-methyl-3H-benzo[4,5]thieno[2,3-d]pyrimidin-4-one] | – | – | – | – | – | – | -1.1% | 7.1% | 2.1% | 15% | 2.1% | 4.3%
COc1cc(-c2nc3sc4c(c3c(=O)n2Cc2ccccc2)CC(C)CC4)cc(OC)c1OC (stereo not drawn) [No. 687, 3-Benzyl-6-methyl-2-(3,4,5-trimethoxyphenyl)-5,6,7,8-tetrahydro-3H-benzo[4,5]thieno[2,3-d]pyrimidin-4-one] | – | – | – | – | – | – | 1.7% | 7.3% | -3.3% | 5.5% | 8.3% | 5.6%
COc1cc(-c2nc3sc4c(c3c(=O)n2Cc2ccccc2)CC(C)CC4=O)cc(OC)c1OC (stereo not drawn) [No. 688, 3-Benzyl-6-methyl-2-(3,4,5-trimethoxyphenyl)-6,7-dihydro-3H,5H-benzo[4,5]thieno[2,3-d]pyrimidin-4,8-dione] | – | – | – | – | – | – | 14.4% | 22.3% | 21.5% | 21.6% | 25.4% | 14.2%
COc1cc(-c2nc3sc4c(c3c(=O)n2Cc2ccccc2)CC(C)C(Br)C4=O)c(Br)c(OC)c1OC (stereo not drawn) [No. 689, 3-Benzyl-7-bromo-6-methyl-2-(2-bromo-3,4,5-trimethoxyphenyl)-6,7-dihydro-3H-benzo[4,5]thieno[2,3-d]pyrimidin-4,8-dione] | – | – | – | – | – | – | -2.4% | 17.4% | 7.7% | 5.7% | -3% | 5.7%
COc1cc(-c2nc3sc4c(O)cc(C)cc4c3c(=O)n2Cc2ccccc2)c(Br)c(OC)c1OC [No. 690, 3-Benzyl-2-(2-bromo-3,4,5-trimethoxyphenyl)-8-hydroxy-6-methyl-3H-benzo[4,5]thieno[2,3-d]pyrimidin-4-one] | – | – | – | – | – | – | -2.7% | 6.4% | 17.3% | 19.2% | 14.2% | 23.5%
CCCCn1c(-c2cc(OC)c(OC)c(OC)c2)nc2sc3c(c2c1=O)CC(C)CC3 (stereo not drawn) [No. 691, 3-Butyl-6-methyl-2-(3,4,5-trimethoxyphenyl)-5,6,7,8-tetrahydro-3H-benzo[4,5]thieno[2,3-d]pyrimidin-4-one] | – | – | – | – | – | – | -5.3% | 11.9% | 7% | 22.6% | 2.1% | -6.3%
CCCCn1c(-c2cc(OC)c(OC)c(OC)c2)nc2sc3c(c2c1=O)CC(C)CC3=O (stereo not drawn) [No. 692, 3-Butyl-6-methyl-2-(3,4,5-trimethoxyphenyl)-6,7-dihydro-3H,5H-benzo[4,5]thieno[2,3-d]pyrimidin-4,8-dione] | – | – | – | – | – | – | 9.8% | 35% | 18% | 28.6% | 12.7% | 21%
